In one data set the target is T1, HIV-1 IN (Human immunodeficiency virus type 1 group M subtype B, UniProt P12497).
T1 construct: pre-incubated with purified recombinant IN (at a final concentration of 200 nM); made in house
The data set is described as follows: In vitro IN inhibition assay (3’-processing and strand transfer). Format: biochemical. The note with it: Mn2+ cofactor (7.5 mM MnCl2). How it is done:
(§1) All compounds were dissolved in DMSO to a final stock concentration of 10 mM and stored at −20 °C. Initial screening for IN inhibitory effect was done at 100 μM and dilutions were made in DMSO. Compounds showing at least 50% inhibition at 100 μM were selected for IC50 determinations. γ-[^32P]-ATP was purchased from Perkin Elmer (Waltham, MA, USA). The expression system for wild-type IN was a generous gift of Dr. Robert Craigie, Laboratory of Molecular Biology, NIDDK, NIH (Bethesda, MD, USA). His-tagged APE1 was purified from an expression system kindly provided by Dr. Tom Curran, Department of Developmental Neurobiology, St. Jude Children’s Research Hospital (Memphis, TN, USA).
(§2) 21-mer oligonucleotides used in IN inhibition assay [21top (5’-[…]-3’) and 21bot (5’-ACTGCTAGAGATTTTCCA CAC-3’)] were purchased from Integrated DNA Technologies (Coralville, IA, USA) and purified by UV shadowing on polyacrylamide gel. The oligonucleotides used in APE1 inhibition assay [top strand: 5′-ATTTCACCGGTACG(F)TCTAGAATC CG-3′ containing the tetrahydrofuran synthetic abasic residue (F), and bottom strand: 3′-TAAAGTGG CCATGC(C)AGATCTTAGGC-5′] were purchased from The Midland Certified Reagent Company (Midland, TX, USA). To analyze the extent of 3’-processing and strand transfer with 5’-end labeled substrates, 21top was 5’-end labeled using T4 polynucleotide kinase (Epicentre, Madison, WI, USA) and [γ-^32P]-ATP (Perkin Elmer, Waltham, MA, USA). The kinase was heat-inactivated at 95 °C and 21bot was added in […]. The reaction mixture was allowed to cool slowly to room temperature, and purified through a spin-25 minicolumn (USA Scientific, Ocala, FL, USA) to separate annealed double-stranded oligonucleotide from unincorporated material. The oligonucleotides used in the APE1 inhibition assay were labeled using a similar protocol.
To determine the extent of 3’-processing and strand transfer, the test compounds, diluted in DMSO, were pre-incubated with purified recombinant IN (at a final concentration of 200 nM) in the reaction buffer [50 mM NaCl, 1 mM HEPES (pH 7.5), 50 μM EDTA, 50 μM dithiothreitol, 10% glycerol (w/v), 7.5 mM MnCl2, 0.1 mg mL–1 bovine serum albumin, 10 mM 2-mercaptoethanol, 10% dimethyl sulfoxide, and 25 mM MOPS (pH 7.2)] at 30 °C for 30 min. For Mg^2+ assay, 7.5 mM MgCl2 was substituted for MnCl2 and an optimal concentration of PEG was included in the reaction buffer. Following the pre-incubation, 20 nM of the 5’-end ^32P-labeled linear oligonucleotide substrate was added to the reaction mixture and incubated for an additional 1 h. Reactions were quenched by addition of 50X loading dye (98% deionized formamide, 10 mM EDTA, 0.025% xylene cyanol, and 0.025 % bromophenol blue). An aliquot was subjected to electrophoresis on a denaturing polyacrylamide gel (0.09 M tris–borate, pH 8.3, 2 mM EDTA, 20% acrylamide, 8M urea). Gels were dried under vacuum, exposed in a PhosphorImager cassette and visualized with a Typhoon 8610 Variable Mode Imager (Amersham Biosciences). Quantification was done with Image Quant 5.2 software. Percent inhibition (%I) was calculated using the following equation: %I = 100 × [1 − (D − C) / (N − C)] where C, N, and D are the fractions of 21-mer substrate converted into 19-mer (product of 3’-processing) or strand-transfer products for DNA alone, DNA plus IN, and DNA, IN plus test compound, respectively. IC50 values were determined by plotting the logarithm of test compound concentrations as a function of %I to obtain the concentration that produced 50% inhibition.

The target in data set [1] is T2, human apurinic/apyrimidinic endonuclease 1 (APE1) (Homo sapiens, UniProt P27695).
T2 construct: His; made in house
The data set is described as follows: APE1 inhibition assay. The settings on record: read-out: Inhibition of APE1 catalytic activity IC50. Format: biochemical. Here is the method:
as §1, §2
APE1 inhibition assay was performed as previously described. To determine the extent of endonucleolytic cleavage of the abasic residue, the test compounds, diluted in DMSO, were preincubated with recombinant APE1 at a final concentration of 0.05 nM in the reaction buffer [50 mM NaCl, 1 mM HEPES, pH 7.5, 50 μM EDTA, 50 μM dithiothreitol, 10% glycerol (w/v), 7.5 mM MnCl2, 0.1 mg mL‑1 bovine serum albumin, 10 mM 2-mercaptoethanol, 10% DMSO, and 25 mM MOPS, pH 7.2] at 30 °C for 10 min. Following preincubation, 200 nM of the 5′-end ^32P-labeled linear oligonucleotide substrate was added, and incubated for an additional 10 minutes. Reactions were quenched by the addition of an equal volume (16 μL) of loading dye (98% deionized formamide, 10 mM EDTA, 0.025% xylene cyanol, and 0.025% bromophenol blue). An aliquot (5 μL) was electrophoresed on a denaturing 20% polyacrylamide gel (0.09 M tris-borate pH 8.3, 2 mM EDTA, 20% acrylamide, 8 M urea). The gels were dried, exposed in a PhosphorImager cassette and analyzed using a Typhoon 8610 Variable Mode Imager (Amersham Biosciences). Quantification of enzyme inhibition was done using Image Quant 5.2 software. The percent inhibition (% I) was calculated using the following equation: %I = 100 × [1 − (D − C) / (N − C)] where C, N, and D are the fractions of 26-mer substrate converted to 13-mer incision products (or integration products) for DNA alone, DNA plus APE1, and DNA, APE1 plus test compound, respectively. IC50 values were determined by plotting the logarithm of compound concentration as a function of %I to obtain the concentration that produced 50% inhibition. An optimum concentration of APE1 enzyme, at which there is complete conversion of the synthetic abasic-site containing oligonucleotide substrate to its cleaved product without subsequent exonuclease activity, was used in the assay.

The mark [2] stands for this setting: read-out: Inhibition of IN catalytic activity IC50, 3’-Processing.
Setting [3] is: read-out: Inhibition of IN catalytic activity IC50, Strand Transfer.

Where two headings read alike, the source gives them in different places.

The values below come from article PMC6264390, “Design, Synthesis and Structure-activity Studies of Rhodanine Derivatives as HIV-1 Integrase Inhibitors” (Molecules, 2010).

As usually defined, the IC50 is the concentration that inhibits the measured activity by half. The term melting point denotes the temperature, or range, at which the solid turns liquid.

T2 sequence (P27695 whole entry): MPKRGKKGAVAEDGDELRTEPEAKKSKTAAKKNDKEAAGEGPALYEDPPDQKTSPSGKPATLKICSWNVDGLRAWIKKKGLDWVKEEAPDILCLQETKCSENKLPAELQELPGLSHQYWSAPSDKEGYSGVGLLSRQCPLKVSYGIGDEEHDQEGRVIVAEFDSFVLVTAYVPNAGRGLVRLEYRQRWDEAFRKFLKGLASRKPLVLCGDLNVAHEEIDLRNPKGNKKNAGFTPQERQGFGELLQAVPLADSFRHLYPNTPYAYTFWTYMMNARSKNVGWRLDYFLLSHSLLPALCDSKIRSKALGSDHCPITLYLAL

On to `Cc1ccc(C(=O)C=C2SC(=S)N(NC(=S)C(=O)Nc3ccccc3)C2=O)cc1` [Compound 11, 2-{5-[2-(4-Methylphenyl)-2-oxoethylidene]-4-oxo-2-thioxo-1,3-thiazolidin-3-yl}amino-N-phenyl-2-thioxoacetamide], for which the melting point lay in the range of 147 to 148 °C. Besides, the IC50 at HIV-1 IN (setting [2]) stood at 58 ± 4 µM. In addition, the concentration for half-maximal inhibition (IC50) on HIV-1 IN (setting [3]) turned out to be 20 ± 6 µM. For the same molecule, in data set [1], the IC50 was over 100 µM.
For `COc1ccc(NC(=O)C(=S)NN2C(=O)C(=Cc3ccc([N+](=O)[O-])o3)SC2=S)cc1OC` [Compound 18, N-(3,4-dimethoxyphenyl)-2-{5-[(5-nitro-2-furyl)methylene]-4-oxo-2-thioxo-1,3-thiazolidin-3-yl}amino-2-thioxoacetamide] the same measures were 156 to 157 °C, 34 ± 10 µM, 14 ± 5 µM and over 100 µM.
For `O=C(Nc1ccc(O)cc1)C(=S)NN1C(=O)C(=Cc2cc([N+](=O)[O-])ccc2O)SC1=S` [Compound 44, 2-{[5-(2-Hydroxy-5-nitrobenzylidene)-4-oxo-2-thioxo-1,3-thiazolidin-3-yl]amino}-N-(4-hydroxy-phenyl)-2-thioxoacetamide] the same measures were 199 to 200 °C, 53 ± 8 µM, 45 ± 14 µM and over 100 µM.
Molecule `COc1cc(NC(=O)C(=S)NN2C(=O)C(=Cc3cc(Br)ccc3O)SC2=S)cc(OC)c1OC` [Compound 28, 2-{[5-(5-Bromo-2-hydroxybenzylidene)-4-oxo-2-thioxo-1,3-thiazolidin-3-yl]amino}-2-thioxo-N-(3,4,5-trimethoxyphenyl)acetamide] yielded a melting point of 208 to 209 °C. Further, the IC50 on HIV-1 IN (setting [2]) is 44 ± 13 µM. The 50% inhibitory concentration (IC50) at HIV-1 IN (setting [3]) amounted to 30 ± 19 µM. For the same molecule, in data set [1], the IC50 was over 100 µM.
The matching figures for `COc1cc(C=C2SC(=S)N(NC(=S)C(=O)Nc3ccc(-n4cnnn4)c(C)c3)C2=O)cc(OC)c1OC` [Compound 24, N-[3-methyl-4-(1H-tetrazol-1-yl)phenyl]-2-{[4-oxo-2-thioxo-5-(3,4,5-trimethoxybenzylidene)-1,3-thiazolidin-3-yl]amino}-2-thioxoacetamide]: 173 to 174 °C, over 100 µM, over 100 µM and over 100 µM.
As to `O=C(Nc1ccc(O)cc1)C(=S)NN1C(=O)C(=Cc2cccc([N+](=O)[O-])c2O)SC1=S` [Compound 43, 2-{[5-(2-Hydroxy-3-nitrobenzylidene)-4-oxo-2-thioxo-1,3-thiazolidin-3-yl]amino}-N-(4-hydroxy-phenyl)-2-thioxoacetamide], the melting point was in the range of 179 to 180 °C. For the same molecule, at HIV-1 IN (setting [2]), the IC50 is over 100 µM. On HIV-1 IN (setting [3]), the IC50 worked out at 88 µM. Further, in data set [1], the IC50 was over 100 µM.
In turn, `COc1cc(C=C2SC(=S)N(NC(=S)C(=O)Nc3cccc(C(F)(F)F)c3)C2=O)cc(OC)c1OC` [Compound 25, 2-{[4-Oxo-2-thioxo-5-(3,4,5-trimethoxybenzylidene)-1,3-thiazolidin-3-yl]amino}-2-thioxo-N-[3-(tri-fluoromethyl)phenyl]acetamide] had a melting point of 160 to 161 °C. Further, the IC50 at HIV-1 IN (setting [2]) was over 100 µM. Further, on HIV-1 IN (setting [3]), the IC50 is over 100 µM. For the same molecule, in data set [1], the IC50 is over 100 µM.
`COc1ccc(NC(=O)C(=S)NN2C(=O)C(=Cc3ccc(Cl)cc3)SC2=S)cc1` [Compound 9, 2-{[5-(4-Chlorobenzylidene)-4-oxo-2-thioxo-1,3-thiazolidin-3-yl]amino}-N-(4-methoxyphenyl)-2-thioxoacetamide]: the melting point lay in the range of 186 to 187 °C. The concentration for half-maximal inhibition (IC50) on HIV-1 IN (setting [2]) turned out to be 33 µM. On HIV-1 IN (setting [3]), the half-inhibitory concentration (IC50) was 33 µM. Also, in data set [1], the concentration for half-maximal inhibition (IC50) was 47 ± 2 µM.
With `COc1cc(C=C2SC(=S)N(NC(=S)C(=O)Nc3cc(OC)c(OC)c(OC)c3)C2=O)cc(OC)c1OC` [Compound 22, 2-{[4-Oxo-2-thioxo-5-(3,4,5-trimethoxybenzylidene)-1,3-thiazolidin-3-yl]amino}-2-thioxo-N-(3,4,5-tri-methoxyphenyl)acetamide], the melting point lay within 196 to 197 °C. For the same molecule, the 50% inhibitory concentration (IC50) at HIV-1 IN (setting [2]) is over 100 µM. Also, the IC50 on HIV-1 IN (setting [3]) was 90 µM. The IC50 in data set [1] was over 100 µM.
In the case of `O=C(Nc1ccc(O)cc1)C(=S)NN1C(=O)C(=Cc2cc(Cl)ccc2O)SC1=S` [Compound 41, 2-{[5-(5-Chloro-2-hydroxybenzylidene)-4-oxo-2-thioxo-1,3-thiazolidin-3-yl]amino}-N-(4-hydroxy-phenyl)-2-thioxoacetamide], the melting point was 220 to 221 °C. Besides, the IC50 on HIV-1 IN (setting [2]) is over 100 µM. The half-maximal inhibitory concentration (IC50) at HIV-1 IN (setting [3]) was 67 µM. Besides, the 50% inhibitory concentration (IC50) in data set [1] is over 100 µM.
As for `CCOc1cc(-n2cnnn2)c(OCC)cc1NC(=O)C(=S)NN1C(=O)C(=Cc2cc(OC)c(OC)c(OC)c2)SC1=S` [Compound 23, N-[2,5-diethoxy-4-(1H-tetrazol-1-yl)phenyl]-2-{[4-oxo-2-thioxo-5-(3,4,5-trimethoxybenzylidene)-1,3-thiazolidin-3-yl]amino}-2-thioxoacetamide], the melting point was in the range of 158 to 159 °C. In addition, the concentration for half-maximal inhibition (IC50) at HIV-1 IN (setting [2]) was over 100 µM. Moreover, the half-inhibitory concentration (IC50) at HIV-1 IN (setting [3]) was over 100 µM. Also, the IC50 in data set [1] was determined as 83 µM.
`CCN(CC)c1ccc(C=C2SC(=S)N(NC(=S)C(=O)Nc3cc(OC)c(OC)c(OC)c3)C2=O)c(O)c1` [Compound 33, 2-({5-[4-(Diethylamino)-2-hydroxybenzylidene]-4-oxo-2-thioxo-1,3-thiazolidin-3-yl}amino)-2-thioxo-N-(3,4,5-trimethoxyphenyl)acetamide] registered a melting point of 210 to 211 °C. On HIV-1 IN (setting [2]), the IC50 is over 100 µM. The half-inhibitory concentration (IC50) at HIV-1 IN (setting [3]) was over 100 µM. For the same molecule, the IC50 in data set [1] was over 100 µM.
